# Test results as given in ChEMBL document CHEMBL1134716, “Synthesis and evaluation of GGPP geometric isomers: divergent substrate specificities of FTase and GGTase I” (Bioorg Med Chem Lett, 2001).
# Target: Geranylgeranyl transferase type I (Homo sapiens, UniProt P49354+P53609)
# Test: Inhibition of recombinant mammalian Geranylgeranyl transferase type I expressed in baculovirus
row,IC50,SMILES
1,340 nM,CC(C)=CCC/C(C)=C/CC/C(C)=C\CC/C(C)=C/COP(=O)(O)OP(=O)(O)O
2,100 nM,CC(C)=CCC/C(C)=C/CC/C(C)=C/CC/C(C)=C\COP(=O)(O)OP(=O)(O)O
